Test system: normal human lung fibroblasts
Assay: Ribosomal profiling: translational efficiency in TGFβ-treated fibroblasts
Type: cell-based
Experimental: Ribosomal profiling allows for measurement of changes in transcription and translation on a genome-wide basis accompanying TGFβ-dependent transformation of fibroblasts to myofibroblasts. Ribosomal profiles of the TGFβ-treated fibroblasts from Example 1 (about 6×10^6 cells/10 cm plate) were prepared and analyzed for changes in translational efficiencies with respect to potential disease-associated cellular changes accompanying this TGFβ-induced transformation.
Briefly, cells were washed with cold PBS supplemented with cycloheximide and lysed with 1× mammalian cell lysis buffer for 10 minutes on ice. Lysates were clarified by centrifugation for 10 minutes at 14,000 rpm and supernatants were collected. Cell lysates were processed to generate ribosomal protected fragments and total mRNA according to the instructions included with the ARTseq Ribosome Profiling Kit (Illumina, San Diego, Calif.). Sequencing of total RNA (RNA) and of ribosome-protected fragments of RNA (RPF) was carried out using RNA-Seq methodology according to the manufacturer's instructions (Illumina). To analyze the ribosomal profiles, RNA-Seq reads were processed with tools from the FASTX-Toolkit (fastq_quality_trimmer, fastx_clipper and fastx_trimmer). Unprocessed and processed reads were evaluated for a variety of quality measures using FastQC, and processed reads were mapped to the human genome using TopHat (see, e.g., Trapnell et al., Bioinformatics 25:1105, 2009). Gene-by-gene assessment of the number of fragments strictly and uniquely mapping to the coding region of each gene was conducted using HTSeq-count, a component of the HTSeq package. […] Genes with low counts in either RPF or RNA were excluded from differential analyses. Pathway and network analyses of differential data were conducted using Ingenuity Pathway Analysis (IPA).

With `CC(C)n1nc(-c2cc3cc(O)ccc3[nH]2)c2c(N)ncnc21` [PP242] the “renormalizing the translational profile of RHOBTB3” value (ENSG00000164292, TGFβ-treated fibroblasts) was “− (− = <0.9)”, the “renormalizing the translational profile of HCN1” value (ENSG00000164588, TGFβ-treated fibroblasts) was “− (− = <0.9)” and the “renormalizing the translational profile of RPL36AL” value (ENSG00000165502, TGFβ-treated fibroblasts) was “− (− = <0.9)”. The “renormalizing the translational profile of RPL27A” value (ENSG00000166441, TGFβ-treated fibroblasts) was “− (− = <0.9)”, the “renormalizing the translational profile of RP11-382A20.3.1” value (ENSG00000166503, TGFβ-treated fibroblasts) was “− (− = <0.9)” and the “renormalizing the translational profile of ANKDD1A” value (ENSG00000166839, TGFβ-treated fibroblasts) was “+ (+ = 0.9 to 1.5)”. For the same compound, the “renormalizing the translational profile of RPL13” value (ENSG00000167526, TGFβ-treated fibroblasts) was “− (− = <0.9)”, the “renormalizing the translational profile of EEF2” value (ENSG00000167658, TGFβ-treated fibroblasts) was “+ (+ = 0.9 to 1.5)” and the “renormalizing the translational profile of CA5B” value (ENSG00000169239, TGFβ-treated fibroblasts) was “+ (+ = 0.9 to 1.5)”. The “renormalizing the translational profile of MURC” value (ENSG00000170681, TGFβ-treated fibroblasts) was “− (− = <0.9)”, the “renormalizing the translational profile of HTRA3” value (ENSG00000170801, TGFβ-treated fibroblasts) was “− (− = <0.9)” and the “renormalizing the translational profile of PDE7B” value (ENSG00000171408, TGFβ-treated fibroblasts) was “− (− = <0.9)”. The “renormalizing the translational profile of LPAR3” value (ENSG00000171517, TGFβ-treated fibroblasts) was “− (− = <0.9)”, the “renormalizing the translational profile of CTPS” value (ENSG00000171793, TGFβ-treated fibroblasts) was “− (− = <0.9)” and the “renormalizing the translational profile of QARS” value (ENSG00000172053, TGFβ-treated fibroblasts) was “− (− = <0.9)”. For the same compound, the “renormalizing the translational profile of RPL38” value (ENSG00000172809, TGFβ-treated fibroblasts) was “− (− = <0.9)”, the “renormalizing the translational profile of MRPL45” value (ENSG00000174100, TGFβ-treated fibroblasts) was “+ (+ = 0.9 to 1.5)” and the “renormalizing the translational profile of RPL4” value (ENSG00000174444, TGFβ-treated fibroblasts) was “− (− = <0.9)”. For the same compound, the “renormalizing the translational profile of RPL15” value (ENSG00000174748, TGFβ-treated fibroblasts) was “− (− = <0.9)”, the “renormalizing the translational profile of DES” value (ENSG00000175084, TGFβ-treated fibroblasts) was “− (− = <0.9)” and the “renormalizing the translational profile of EIF3F” value (ENSG00000175390, TGFβ-treated fibroblasts) was “− (− = <0.9)”. The “renormalizing the translational profile of CLCF1” value (ENSG00000175505, TGFβ-treated fibroblasts) was “− (− = <0.9)”, the “renormalizing the translational profile of AMIGO3” value (ENSG00000176020, TGFβ-treated fibroblasts) was “− (− = <0.9)” and the “renormalizing the translational profile of C14orf49” value (ENSG00000176438, TGFβ-treated fibroblasts) was “− (− = <0.9)”. The “renormalizing the translational profile of RPLP2” value (ENSG00000177600, TGFβ-treated fibroblasts) was “− (− = <0.9)”, the “renormalizing the translational profile of IMPDH2” value (ENSG00000178035, TGFβ-treated fibroblasts) was “− (− = <0.9)” and the “renormalizing the translational profile of DNAJC22” value (ENSG00000178401, TGFβ-treated fibroblasts) was “+ (+ = 0.9 to 1.5)”. The “renormalizing the translational profile of RPL35A” value (ENSG00000182899, TGFβ-treated fibroblasts) was “+ (+ = 0.9 to 1.5)”, the “renormalizing the translational profile of LENG9” value (ENSG00000182909, TGFβ-treated fibroblasts) was “− (− = <0.9)” and the “renormalizing the translational profile of C22orf32” value (ENSG00000183172, TGFβ-treated fibroblasts) was “− (− = <0.9)”. The “renormalizing the translational profile of NPW” value (ENSG00000183971, TGFβ-treated fibroblasts) was “− (− = <0.9)”, the “renormalizing the translational profile of PDE4B” value (ENSG00000184588, TGFβ-treated fibroblasts) was “− (− = <0.9)” and the “renormalizing the translational profile of ROBO2” value (ENSG00000185008, TGFβ-treated fibroblasts) was “− (− = <0.9)”. The “renormalizing the translational profile of PTCH1” value (ENSG00000185920, TGFβ-treated fibroblasts) was “− (− = <0.9)”, the “renormalizing the translational profile of POLR1D” value (ENSG00000186184, TGFβ-treated fibroblasts) was “− (− = <0.9)” and the “renormalizing the translational profile of DYNC2H1” value (ENSG00000187240, TGFβ-treated fibroblasts) was “− (− = <0.9)”. For the same compound, the “renormalizing the translational profile of RPL14” value (ENSG00000188846, TGFβ-treated fibroblasts) was “− (− = <0.9)”, the “renormalizing the translational profile of LRRK2” value (ENSG00000188906, TGFβ-treated fibroblasts) was “− (− = <0.9)” and the “renormalizing the translational profile of NACA” value (ENSG00000196531, TGFβ-treated fibroblasts) was “− (− = <0.9)”. The “renormalizing the translational profile of LAMB3” value (ENSG00000196878, TGFβ-treated fibroblasts) was “− (− = <0.9)”, the “renormalizing the translational profile of PCBP2” value (ENSG00000197111, TGFβ-treated fibroblasts) was “− (− = <0.9)” and the “renormalizing the translational profile of MAP3K5” value (ENSG00000197442, TGFβ-treated fibroblasts) was “− (− = <0.9)”. The “renormalizing the translational profile of RPL37A” value (ENSG00000197756, TGFβ-treated fibroblasts) was “− (− = <0.9)”, the “renormalizing the translational profile of RPL12” value (ENSG00000197958, TGFβ-treated fibroblasts) was “− (− = <0.9)” and the “renormalizing the translational profile of LPAR1” value (ENSG00000198121, TGFβ-treated fibroblasts) was “− (− = <0.9)”. For the same compound, the “renormalizing the translational profile of RPL23A” value (ENSG00000198242, TGFβ-treated fibroblasts) was “− (− = <0.9)”, the “renormalizing the translational profile of PLN” value (ENSG00000198523, TGFβ-treated fibroblasts) was “− (− = <0.9)” and the “renormalizing the translational profile of RPL10A” value (ENSG00000198755, TGFβ-treated fibroblasts) was “− (− = <0.9)”. For the same compound, the “renormalizing the translational profile of CES1” value (ENSG00000198848, TGFβ-treated fibroblasts) was “− (− = <0.9)”, the “renormalizing the translational profile of RPL39” value (ENSG00000198918, TGFβ-treated fibroblasts) was “− (− = <0.9)” and the “renormalizing the translational profile of CARD16” value (ENSG00000204397, TGFβ-treated fibroblasts) was “− (− = <0.9)”. For the same compound, the “renormalizing the translational profile of GNB2L1” value (ENSG00000204628, TGFβ-treated fibroblasts) was “+ (+ = 0.9 to 1.5)”, the “renormalizing the translational profile of RPL17” value (ENSG00000215472, TGFβ-treated fibroblasts) was “− (− = <0.9)” and the “renormalizing the translational profile of RPL41” value (ENSG00000229117, TGFβ-treated fibroblasts) was “− (− = <0.9)”. The “renormalizing the translational profile of ARPC1A” value (ENSG00000241685, TGFβ-treated fibroblasts) was “− (− = <0.9)”, the “renormalizing the translational profile of CHCHD10” value (ENSG00000250479, TGFβ-treated fibroblasts) was “+++ (+++ = >2.0)” and the “renormalizing the translational profile of EEF1G” value (ENSG00000254772, TGFβ-treated fibroblasts) was “− (− = <0.9)”. The “number of the 141 eIF2 pathway genes that moved toward normal” value (TGFβ and PP242, of 141 genes, FIG. 8) was 104, the “number of the 12 eIF2 signaling pathway genes that moved toward the untransformed, normal state” value (TGFβ and PP242, out of 12 genes, FIG. 7) was 11 and the “effect in renormalizing the translational profile of the gene” value (gene RPS2 (ENSG00000140988), TGFβ-treated fibroblasts) was “− (− = <0.9)”. The “effect in renormalizing the translational profile of the gene” value (gene RPS3 (ENSG00000149273), TGFβ-treated fibroblasts) was “− (− = <0.9)”, the “effect in renormalizing the translational profile of the gene” value (gene RPS3A (ENSG00000145425), TGFβ-treated fibroblasts) was “− (− = <0.9)” and the “effect in renormalizing the translational profile of the gene” value (gene RPS4X (ENSG00000198034), TGFβ-treated fibroblasts) was “− (− = <0.9)”. The “effect in renormalizing the translational profile of the gene” value (gene RPS4Y1 (ENSG00000129824), TGFβ-treated fibroblasts) was “− (− = <0.9)”, the “effect in renormalizing the translational profile of the gene” value (gene RPS5 (ENSG00000083845), TGFβ-treated fibroblasts) was “− (− = <0.9)” and the “effect in renormalizing the translational profile of the gene” value (gene RPS6 (ENSG00000137154), TGFβ-treated fibroblasts) was “− (− = <0.9)”.
